Reference: patent publication US11780845B2 (Relay Therapeutics, Inc., priority 2019, dated 2023)

Experiments:
FGFR2 = FGFR2 (Homo sapiens (Human), UniProt P21802); assay: FGFR2 Biochemical Caliper Assay
Procedure: Compounds of the present invention were also tested in a FGFR2 Biochemical Caliper Assay. Compounds were prepared in 10 mM DMSO solution and serially diluted into 11 concentrations by 3-fold dilution. […] 5 uL of ATP solution (100 uM) was added to start the reaction and the plate was incubated for 90 minutes, then 70 uL of stopping buffer (0.5M EDTA) was added to terminate the reaction. Each well was analyzed using EZ reader.

SNU16 cells = assay: SNU16 Cancer Cell Line Proliferation Assay; format: cell-based; conditions: Homo sapiens; SNU-16 cells
How it was run: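 Proliferation read-out: CellTiter Glo chemiluminescence after 96 h compound exposure. Test compounds, serially diluted 3-fold over 11 points from a 10 mM DMSO stock, were added to SNU16 cells plated 24 h earlier at 37 degrees.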

Sequence of FGFR2 (P21802 22-821): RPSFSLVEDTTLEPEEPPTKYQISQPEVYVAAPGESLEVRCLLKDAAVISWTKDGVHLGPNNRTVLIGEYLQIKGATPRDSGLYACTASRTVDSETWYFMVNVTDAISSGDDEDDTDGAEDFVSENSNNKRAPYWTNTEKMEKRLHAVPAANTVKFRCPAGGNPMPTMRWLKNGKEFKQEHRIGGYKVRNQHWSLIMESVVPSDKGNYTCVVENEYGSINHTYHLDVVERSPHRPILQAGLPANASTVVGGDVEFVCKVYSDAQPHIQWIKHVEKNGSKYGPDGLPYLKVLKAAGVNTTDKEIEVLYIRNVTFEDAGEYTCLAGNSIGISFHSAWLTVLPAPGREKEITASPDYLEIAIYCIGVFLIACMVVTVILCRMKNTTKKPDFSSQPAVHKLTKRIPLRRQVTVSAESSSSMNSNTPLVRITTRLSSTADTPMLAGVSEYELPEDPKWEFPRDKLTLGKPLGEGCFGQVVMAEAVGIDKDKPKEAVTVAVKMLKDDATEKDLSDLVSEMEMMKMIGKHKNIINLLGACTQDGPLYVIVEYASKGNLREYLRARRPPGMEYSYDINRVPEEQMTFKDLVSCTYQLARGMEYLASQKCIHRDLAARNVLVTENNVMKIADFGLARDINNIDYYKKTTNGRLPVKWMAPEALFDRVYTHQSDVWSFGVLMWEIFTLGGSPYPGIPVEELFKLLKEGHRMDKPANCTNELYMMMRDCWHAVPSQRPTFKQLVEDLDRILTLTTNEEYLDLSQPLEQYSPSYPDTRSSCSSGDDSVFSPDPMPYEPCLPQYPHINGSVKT

SMILES	IC50 (FGFR2)	IC50 (SNU16 cells)
C=C(C)C(=O)Nc1ccc(-c2c(-c3ccc(C(=O)NC4CC(F)C4)c(F)c3)c3c(N)ncnc3n2C)cc1 (centres unmarked) [Example 567]	100 to 250 nM	≤ 100 nM
C=C(C)C(=O)Nc1ccc(-c2c(-c3ccc(C(=O)NCC(F)(F)F)c(OC)c3)c3c(N)ncnc3n2C)cc1 [Example 568]	< 100 nM	≤ 100 nM
C=C(C)C(=O)Nc1ccc(-c2c(-c3ccc(C(=O)N4CCCC4)cc3OC)c3c(N)ncnc3n2C)cc1 [Example 569]	100 to 250 nM	100 to 250 nM
C=C(C)C(=O)Nc1ccc(-c2c(-c3c(F)cc(Oc4nccc(C)n4)cc3F)c3c(N)ncnc3n2C)cc1 [Example 570]	< 100 nM	≤ 100 nM
C=C(C)C(=O)Nc1ccc(-c2c(-c3ccc(Oc4nccc(C)n4)cc3C(F)F)c3c(N)ncnc3n2C)cc1 [Example 571]	1000 to 100000 nM	250 to 1000 nM
C=C(C)C(=O)Nc1ccc(-c2c(-c3ncc(Oc4nccc(C)n4)cc3F)c3c(N)ncnc3n2C)cc1 [Example 572]	< 100 nM	≤ 100 nM
C=Cc1ncc2cc(-c3c(-c4ccc(C(=O)N5CCCC5)cc4)c4c(N)ncnc4n3C)ccc2n1 [Example 573]	1000 to 100000 nM	250 to 1000 nM
C=C(C)C(=O)Nc1ccc(-c2c(-c3ccc(C(=O)NCC4CCC4)c(F)c3)c3c(N)ncnc3n2C)nc1 [Example 589]	< 100 nM	≤ 100 nM
Cn1c(-c2ccc(NC(=O)C3=CCC3)cc2)c(-c2ccc(C(=O)NCC3CCC3)c(F)c2)c2c(N)ncnc21 [Example 590]	< 100 nM	≤ 100 nM
C=C(C)C(=O)Nc1ccc(-c2c(-c3ccc(Oc4nccc(C)n4)c(C(F)F)c3)c3c(N)ncnc3n2C)cc1 [Example 594]	100 to 250 nM	≤ 100 nM
C=Cc1ccc(-c2c(-c3ccc(Oc4nccc(C)n4)cc3)c3c(N)ncnc3n2C)cn1 [Example 598]	100 to 250 nM	250 to 1000 nM
C=C(C)C(=O)Nc1ccc(-c2c(-c3ccc(Oc4nccc(C(F)F)n4)cc3)c3c(N)ncnc3n2C)cc1 [Example 600]	< 100 nM	≤ 100 nM
C=C(C)C(=O)Nc1ccc(-c2c(C3=C(F)CC(C(=O)N4CCCC4)CC3)c3c(N)ncnc3n2C)cc1 (centres unmarked) [Example 601]	1000 to 100000 nM	250 to 1000 nM
C=CC(=O)N1CCC(n2cc(-c3c(-c4ccc(Oc5ccccc5)cc4)c4c(N)ncnc4n3C)cn2)CC1 [Example 602]	< 100 nM	≤ 100 nM
C=CC(=O)N1CC=C(c2c(-c3ccc(Oc4ccccc4)cc3)c3c(N)ncnc3n2C)CC1 [Example 603]	< 100 nM	≤ 100 nM
C=CC(=O)N1CCC(n2cc(-c3c(-c4ccc(Oc5ccccc5)cc4)c4c(N)ncnc4n3C)cn2)C(O)C1 (centres unmarked) [Example 607]	< 100 nM	≤ 100 nM
C=CC(=O)N1CCC(n2cc(-c3c(-c4ccc(Oc5cccc(C)n5)cc4)c4c(N)ncnc4n3C)cn2)CC1 [Example 608]	< 100 nM	≤ 100 nM
CCC(=O)N1CCC(n2cc(-c3c(-c4ccc(Oc5ccccc5)cc4)c4c(N)ncnc4n3C)cn2)CC1 [Example 617]	100 to 250 nM	250 to 1000 nM
C=CC(=O)N1CCC(n2cc(-c3c(-c4ccc(OC)cc4)c4c(N)ncnc4n3C)cn2)CC1 [Example 618]	< 100 nM	≤ 100 nM
C=CC(=O)N1CCC(c2c(-c3ccc(Oc4cccc(C)n4)c(OC)c3)c3c(N)ncnc3n2C)CC1 [Example 619]	100 to 250 nM	100 to 250 nM
C=CC(=O)N1CC=C(c2c(-c3ccc(Oc4cccc(C)n4)c(OC)c3)c3c(N)ncnc3n2C)CC1 [Example 620]	< 100 nM	≤ 100 nM
Cc1cccc(Oc2ccc(-c3c(-c4cnn(C5CCN(C(=O)/C=C/CN(C)C)CC5)c4)n(C)c4ncnc(N)c34)cc2)n1 [Example 621]	< 100 nM	≤ 100 nM
C=C(C)C(=O)N1CCC(n2cc(-c3c(-c4ccc(Oc5cccc(C)n5)cc4)c4c(N)ncnc4n3C)cn2)CC1 [Example 622]	250 to 1000 nM	1000 to 100000 nM
C=CC(=O)NC1CC=C(c2c(-c3ccc(Oc4cccc(C)n4)c(OC)c3)c3c(N)ncnc3n2C)CC1 (centres unmarked) [Example 623]	100 to 250 nM	100 to 250 nM
C=CC(=O)N1CCCC(n2cc(-c3c(-c4ccc(Oc5ccccc5)cc4)c4c(N)ncnc4n3C)cn2)C1C (centres unmarked) [Example 626]	100 to 250 nM	250 to 1000 nM
C=CC(=O)N1CCCC(n2cc(-c3c(-c4ccc(Oc5cccc(C)n5)cc4)c4c(N)ncnc4n3C)cn2)C1C (centres unmarked) [Example 627]	< 100 nM	≤ 100 nM
C=CC(=O)N(C)C1CC(n2cc(-c3c(-c4ccc(Oc5cccc(C)n5)cc4)c4c(N)ncnc4n3C)cn2)C1 (centres unmarked) [Example 628]	< 100 nM	≤ 100 nM
C=CC(=O)N1CCCC(n2cc(-c3c(-c4ccc(Oc5cccc(C)n5)cc4)c4c(N)ncnc4n3C)cn2)C1 (centres unmarked) [Example 629]	< 100 nM	≤ 100 nM
